The text below walks through data of US5965622A, “Desformoterol and process for its preparation” (Sepracor Inc., priority 1998, dated 1999).

Entries after “also recorded” stand apart in the source; their conditions may differ. Read-outs that look alike come from different tables or passages of the source.

For data set [1], the target named is human β1-adrenergic receptor (Homo sapiens, UniProt P08588). Put plainly: binding to human β1-adrenergic receptor (competition curves). Here is the method:
(§1) The four isomers of desformoterol, (R,R)-, (S,S)-, (R,S)-, and (S,R)-, and a 1:1 mixture of the (R,R)- and the (S,S)-enantiomers, were screened, in duplicate, at three concentrations (10^-9, 10^-7, 10^-5 M) for binding to human β1 and β2 -adrenergetic receptors. The compounds were then tested at ten concentrations in duplicate in order to obtain full competition curves. Reference compounds were simultaneously tested at eight concentrations.

Data set [2] concerns the target human β2-adrenergic receptor (Homo sapiens, UniProt P07550). The data set can be described thus: binding to human β2-adrenergic receptor (competition curves). As to conditions: for adrenergic receptor agonist selectivity, in words: binding studies. Here is the method: as §1
The conditions of data set [3]: when inhaled; background statement; cited from earlier work.
The nature of data set [4]: stability of desformoterol according to conditions. Type of data set: physicochemical. As to conditions: pH of the environment. The text has this:
It has been observed that the stability of desformoterol can vary according to conditions.

The mark [5] stands for this setting: human β2-adrenergic receptor, ten concentrations in duplicate (reference compounds eight), read-out: IC50 β2.
[6] abbreviates: human β1-adrenergic receptor, ten concentrations in duplicate (reference compounds eight), read-out: IC50 β1.

human β2-adrenergic receptor, sequence (P07550 whole entry): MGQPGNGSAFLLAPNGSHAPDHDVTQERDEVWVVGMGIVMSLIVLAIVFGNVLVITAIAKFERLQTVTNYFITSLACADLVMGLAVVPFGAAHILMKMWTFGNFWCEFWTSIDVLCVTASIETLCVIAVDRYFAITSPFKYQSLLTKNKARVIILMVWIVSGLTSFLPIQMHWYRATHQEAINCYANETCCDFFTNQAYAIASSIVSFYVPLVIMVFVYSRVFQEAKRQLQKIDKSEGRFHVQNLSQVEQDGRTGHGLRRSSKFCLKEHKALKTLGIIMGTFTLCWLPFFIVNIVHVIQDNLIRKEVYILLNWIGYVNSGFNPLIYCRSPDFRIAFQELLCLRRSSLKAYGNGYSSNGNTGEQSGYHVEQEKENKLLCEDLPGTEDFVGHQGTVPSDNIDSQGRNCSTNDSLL
human β1-adrenergic receptor, sequence (P08588 whole entry): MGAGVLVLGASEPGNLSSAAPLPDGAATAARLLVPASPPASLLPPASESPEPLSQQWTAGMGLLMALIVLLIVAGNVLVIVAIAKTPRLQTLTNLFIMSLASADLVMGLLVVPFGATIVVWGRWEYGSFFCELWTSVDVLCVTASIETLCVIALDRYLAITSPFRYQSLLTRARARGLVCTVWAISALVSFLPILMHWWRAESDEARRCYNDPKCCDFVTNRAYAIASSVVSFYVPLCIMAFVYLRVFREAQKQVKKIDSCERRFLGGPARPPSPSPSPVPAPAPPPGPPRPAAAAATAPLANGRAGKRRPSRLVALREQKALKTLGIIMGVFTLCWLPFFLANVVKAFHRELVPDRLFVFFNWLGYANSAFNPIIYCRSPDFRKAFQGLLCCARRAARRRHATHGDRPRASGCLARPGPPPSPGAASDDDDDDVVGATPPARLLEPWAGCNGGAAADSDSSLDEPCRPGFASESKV

`COc1ccc(C[C@@H](C)NC[C@H](O)c2ccc(O)c(N)c2)cc1` [(R,R)-Desformoterol, (R,R)-3-amino-4-hydroxy-α-[[[2-(4-methoxyphenyl)-1-methylethyl]amino]methyl]-benzenemethanol] had an IC50 in data set [1] of 3.18 µM. In addition, in data set [2], the IC50 worked out at 0.0356 µM and the “adrenergic receptor agonist selectivity, in words” value was “highly selective β-adrenergic receptor agonists”. The “binding/affinity at β2 site, in words” value in data set [2] (human β2-adrenergic receptor) is recorded as “significant binding primarily at the β2 -site”. Further, in data set [2] (ratio of IC50 values β1/β2), the “selectivity (β1/β2) for the β2-receptor” value was “approximately 89 fold” and the “β1/β2 Selectivity” value was 89.
Consider `COc1ccc(C[C@@H](C)NC[C@@H](O)c2ccc(O)c(N)c2)cc1` [(S,R)-Desformoterol], for which the inhibition at 10 µM in data set [1] (at 10^-5 M) came out at 22%. In data set [1] (human β1-adrenergic receptor), the “binding/affinity at β1 site, in words” value was “Neither (R,S)- nor (S,R)-desformoterol showed high affinity for the β1 receptor”. In addition, the IC50 in data set [2] (setting [5]) amounted to 1.89 µM.
On to `COc1ccc(C[C@H](C)NC[C@H](O)c2ccc(O)c(N)c2)cc1` [(R,S)-Desformoterol], for which, in data set [1] (human β1-adrenergic receptor), the “binding/affinity at β1 site, in words” value is “Neither (R,S)- nor (S,R)-desformoterol showed high affinity for the β1 receptor; also recorded: comparable to that of atenolol at the β1 -site”. Also, the IC50 turned out to be 1.79 µM in data set [1] (setting [6]) and 3.14 µM in data set [2] (setting [5]). In addition, the “β1/β2 Selectivity” value in data set [2] (ratio of IC50 values β1/β2) is given as less than 1.
Regarding `COc1ccc(C[C@@H](C)NC[C@H](O)c2ccc(O)c(N)c2)cc1` (relative stereo) [(R,R)-/(S,S)-Racemate of Desformoterol], the results for the IC50 in data set [1] (setting [6]) and in data set [2] (setting [5]) were 5.14 µM and 0.0813 µM, respectively. The “adrenergic receptor agonist selectivity, in words” value in data set [2] is “highly selective β-adrenergic receptor agonists”. The “binding/affinity at β2 site, in words” value in data set [2] (human β2-adrenergic receptor) is recorded as “significant binding only at the β2 -site”. Moreover, the “β1/β2 Selectivity” value in data set [2] (ratio of IC50 values β1/β2) was 63.
Regarding `COc1ccc(C[C@@H](C)NC[C@H](O)c2ccc(O)c(NC=O)c2)cc1` (relative stereo) [Formoterol], the “bronchodilating effect, in words” value in data set [3] is “long lasting bronchodilating effect”.
For the molecule `COc1ccc(CC(C)NCC(O)c2ccc(O)c(N)c2)cc1` (stereo not drawn) [desformoterol, 3-Amino-4-hydroxy-α-[[[2-(4-methoxyphenyl)-1-methylethyl]amino]methyl]-benzenemethanol], in data set [4], the “pH of maximum stability” value came to 2. Further, the “adrenergic receptor agonist selectivity, in words” value in data set [2] was “highly selective β2 -adrenergic receptor agonist”.
In the case of `COc1ccc(C[C@H](C)NC[C@@H](O)c2ccc(O)c(N)c2)cc1` [(S,S)-Desformoterol], the IC50 was 64.7 µM in data set [1] and more than 10 µM in data set [2]. In addition, in data set [1] (human β1-adrenergic receptor), the “binding/affinity at β1 site, in words” value is reported as “lacked affinity for both β-adrenergic sites”. In addition, the “binding/affinity at β2 site, in words” value in data set [2] (human β2-adrenergic receptor) is reported as “lacked affinity for both β-adrenergic sites”. The “β1/β2 Selectivity” value in data set [2] (ratio of IC50 values β1/β2) is less than 6.

One may read the IC50 as the concentration that gives 50% inhibition. Broadly, the inhibition is the share of the control response that was lost under treatment. Higher therefore signals strong suppression.
